We go through one molecule from patent publication US12714702B2, “Compositions and methods for treating or preventing pulmonary hypertension” (priority 2020, dated 2026).

In experiment [1] the test system is serum starved human PASMC. Briefly: Proliferation after cell starvation, CyQUANT Direct. The format is cell-based. The conditions noted are these: Day 5 at 3.1 and 6.2 μM, Day 3 at 6.2 μM. How it is done:
Primary human PASMC were treated with QA up to 6.2 μM concentration. Cell proliferation was quantified by Cyquant Direct.
Briefly, diseased IPAH SMC II cells were seeded in TC-treated 96 well plates in FBS-rich medium and were allowed to adhere overnight. Following day, FBS-rich media was replaced with FBS-Starved media (0% FBS). Cells were further incubated at 37° C./5% CO2 for 24 hours followed by treatments with varying concentrations of QA (1.5-, 3.1-, and 6.2-μM) with dilutions being made in FBS-Starved media. Cellular proliferation was measured as described herein.
In-vitro studies to measure anti-proliferative activity of QA against pulmonary hypertension were performed using primary human PASMC (FIG. 3), primary bovine PASMC (FIG. 4) and high altitude PASMC (HAPASMC) (FIG. 4). HAPASMC, due to prolonged hypoxia exposure, are known to be hyper-proliferative in regular culture conditions, while hyper-proliferation was induced in PASMC cells by 24 hour serum starvation, or by exposure to 5-hydroxytryptamine (5-HT). […] As hyper-proliferation of vascular smooth muscle cells is one of the primary underlying causes for clinical progression of PH pathogenesis, these experiments highlight the therapeutic potential of QA in reversing PH symptoms and progression at non-toxic doses.

The next experiment concerns bovine HAPASMC. Briefly: Anti-proliferative efficacy in high-altitude bovine PASMC. It is filed as cell-based. The conditions noted are these: inherently highly proliferating bovine HAPASMC, 1.5-5.0 μM, time- and concentration-dependent. How it is done:
(§1) Data represent mean±SD (n=5) repeated over 3 experiments. *p<0.05.
(§2) Human or bovine PASMC were treated with varying concentrations of QA (1.5-, 3.1-, and 6.2-μM). Cellular proliferation was measured at day 1, day 3 and day 5 by following the manufacturer's protocol. Briefly, a reagent mix of nucleic acid stain and background suppressor were added in PBS followed by addition of the mix in treatment wells (100 μL/well). The plates were incubated at 37° C./5% CO2 for one hour followed by evaluation of fluorescence at 485 ex/535 em. Proliferation inhibition was analyzed relative to control wells on each time point. Data was averaged from two trials with n=6 for SMC II and one trial of n=4 for SMC III.
(§3) In-vitro studies to measure anti-proliferative activity of QA against pulmonary hypertension were performed using primary human PASMC (FIG. 3), primary bovine PASMC (FIG. 4) and high altitude PASMC (HAPASMC) (FIG. 4). HAPASMC, due to prolonged hypoxia exposure, are known to be hyper-proliferative in regular culture conditions, while hyper-proliferation was induced in PASMC cells by 24 hour serum starvation, or by exposure to 5-hydroxytryptamine (5-HT). […]

In experiment [2] the test system is SU5416/hypoxia-induced PAH model. The conditions noted are these: SU5416/hypoxia rats, QA 10 mg/kg i.p. once-a-day for 3 weeks from Day 1.
Experiment [3] concerns MCT-induced rodent model of pulmonary hypertension. Briefly: Monocrotaline (MCT) induced therapeutic rat model of pulmonary hypertension, hemodynamics. The format is in vivo. Conditions: MCT rats, QA 10 mg/kg s.c. once-a-day for 10 days starting 3 weeks after MCT. How it is done:
Adult male SD rats were injected with MCT (50 mg/kg) by subcutaneous injection. QA administration was initiated 21 days (3 weeks) after MCT administration, once-a-day by subcutaneous route at 10 mg/kg for 10 days. […] Data represent mean±SEM (n=5). *p<0.05.
(§4) Preclinical in-vivo studies for QA were earlier performed at a dose of 10 mg/kg once-a-day in monocrotaline (MCT) induced therapeutic PAH model. Hemodynamic parameters were collected and lung tissues were also collected and were sectioned for visualizing the impact of QA treatment on various PAH biomarkers in-vivo.
To determine the therapeutic activity of QA against PH, the drug was tested using chronic hemodynamic studies in a monocrotaline (MCT)-induced rodent model of pulmonary hypertension. MCT induction is a well established preliminary model, with a single subcutaneous injection of MCT producing chronic PH-like symptoms in rats over a course of 3-4 weeks. Briefly, MCT was subcutaneously injected in adult male Sprague Dawley (SD) rats at 50 mg/kg, and rats were housed for 3 weeks with free access to food and water. […] At the end of day 10, animals were anesthetized to determine right ventricular systolic pressure (RVSP) by RV catheterization, and RV hypertrophy (RVH) was measured by collecting the heart-lung blocks.

Experiment [4] relates to Ki67, PCNA, vWF, α-SMA in MCT-induced PAH animal lung tissue. Briefly: MCT model, immunofluorescence of lung tissue. It is filed as in vivo, rat. The conditions noted are these: MCT rats. The protocol: FIGS. 12A-12B show immunofluorescence imaging for MCT-induced PAH animal lung tissue slides.
as §4
OCT compound embedded Tissue sections for control animals, MCT induced PAH animals and QA treated animals were further subjected to immunofluorescent staining to analyze expression levels of essential molecular markers. Briefly, tissue sections were washed twice with 1×PBS followed by blocking for one hour using a blocking buffer (Cell Signaling Technology, Danvers, MA, USA). Followed by blocking, tissue sections were stained with respective primary antibodies overnight; VWF #ab15419, 1:100 (abcam), α-SMA #489385, 1:500 (CST), Ki67 #9129S (CST), 1:250 and PCNA #2586S (CST), 1:100. Following day, tissue sections were washed with 1×PBS twice followed by incubation with Anti-rabbit IgG (H+L), F(ab′)2 Fragment (Alexa Fluor® 488 Conjugate) #4412S 1:250 (CST) and Anti-mouse IgG (H+L), F(ab′)2 Fragment (Alexa Fluor® 594 Conjugate) #8890S, 1:500 (CST) for one hour. Further, sections were washed with 1×PBS twice and the nuclei were stained with DAPI using Vectashield hardset antifade mounting medium with DAPI (Vector Laboratories, Burlingame, CA, USA). Tissues were imaged using Zeiss Axioplan 2 fluorescence microscope (Carl Zeiss AG, Jena, Germany).
Immunofluorescence imaging of the MCT-induced PAH animal lung tissue slides was also performed.

Experiment [5] has as its system serum starved bovine PASMCs. Briefly: Autophagy inhibition assay, Cyto-ID autophagy detection kit. It is filed as cell-based. Conditions: QA 2.5 and 5 μM, 24 hours. The protocol: In FIGS. 9A-9B, PASMC were serum starved for 24 hours, and then treated with varying QA concentrations in serum-starved media. Quantification was performed using Cyto-ID® autophagy kit and Annexin-V/FITC apoptosis kit. […] In FIG. 9C, autophagy inhibition by QA (5 μM) as depicted by increase in LC3B-II concentration in bovine high altitude PASMC quantified by western blot assay kit. Data represent mean±SD (n=3). *p<0.05.
Bovine PASMCs were serum starved in FBS-free media for 24 hours, and then treated with QA for 24 hours at various concentrations (0, 2.5, or 5 μM). Autophagic inhibition (lysosomal fusion with autophagosomes) was measured with Cyto-ID® autophagy detection kit (Enzo Lifesciences Inc., Farmingdale NY) according to manufacturer's manual.
Autophagy inhibition (lysosomal fusion with autophagosomes) by QA was examined. Bovine PASMCs were serum starved in FBS-free media for 24 hours, and then treated with QA (2.5 and 5 μM) for 24 hours. Autophagic inhibition was measured with Cyto-ID® autophagy detection kit. […] QA-induced autophagy inhibition by targeting LC3B-II expression was examined using HAPASMCs.
In other independent experiments, QA's ability to modulate autophagy/apoptotic pathways was quantified in vitro in serum-starved bovine PASMC cells. Similar results were observed.

Experiment [6] relates to serum-starved bovine PASMC. Briefly: Anti-proliferative efficacy in serum-starved bovine PASMC. It is filed as cell-based. Conditions: 1.5-5.0 μM, time- and concentration-dependent. How it is done: as §1, §2, §3

Turning to `CCN(CC)CCCC(C)Nc1c2ccc(Cl)cc2nc2ccc(OC)cc12` (stereo not shown) [QA, quinacrine], in experiment [1], the cellular hyper-proliferation result is recorded as “Significant reduction”. In addition, the proliferation entry with bovine HAPASMC is “significantly inhibits proliferation”. Also, the RVSP in experiment [2] was 45.6±7.9 mmHg. Besides, the “right ventricular systolic pressure (RVSP)” value in experiment [3] turned out to be 39.9±1.8 mm Hg. For the same molecule, in experiment [4], the “expression of Ki67” value is on record as “reduction in expression” and the “expression of PCNA” value is “reduction in expression”. Besides, in experiment [4] (compared to control), the “expression of vWF” value is “did not show any reduction in expression” and the “expression of α-smooth muscle actin (α-SMA)” value is listed as “did not show any reduction in expression”. Moreover, in experiment [5], the “accumulation of fluorescent dye in autophagosomes (autophagy inhibition)” value is listed as “significantly enhanced the accumulation”. In addition, the proliferation entry in experiment [6] is listed as “significantly inhibits proliferation”.
